According to patent publication US20090214607A1, “Topical use of teprenone” (SEDERMA, priority 2005, published 2009):

Experiments:
[1] = Lipid peroxidation of liposomes using UVA radiation; assay type: biochemical; conditions: UVA induced, vs negative control
Protocol: (§1) In order to determine the action of teprenone as per the invention, the effect of the active substance on the lipid peroxidation of liposomes was analyzed. The liposomes were used to model cutaneous lipids.
In this method, liposomes are exposed to the test compound and then to UV A radiation. Peroxidation is determined by spectrophotometry at 233 nm.

[2] = Lipid peroxidation of liposomes using H2O2+FeCl2; assay type: biochemical; conditions: vs negative control
Protocol: as §1
In this method, liposomes are exposed to the test compound and a Fenton oxidative system. The peroxidation is determined by spectrophotometry. Trolox, a known anti-free radical agent, is used as the positive control at the same molar concentration as a teprenone.

[3] = tested on: Hsp70; assay: Hsp70 immunolabeling in UVB-irradiated human skin explants; assay type: cell-based; conditions: 0.1 mM
Excerpt: (§2) Heat Schock proteins (Hsp) are cellular protective molecules which contribute to the correct proteinic folding, thus preserving the protein activity. Hsp 27 is a protective chaperone protein very present in the keratinocytes at the basal state. In situation of UV stress, cell increases its rate of protection and Hsp 27 is strongly overexpressed. Hsp70 is a chaperone protein less expressed in a basal state but induced in response to the UV, thermics, mechanics or infectious stress.
(§3) Human skin explants are treated in a similar way to the previous experiment (protection on the catalase activity): taken from a plastic surgery, they are cultivated for 48 h in the presence or not, for control, of teprenone (or trolox) at various concentrations, then irradiated or not using a source UVB (2 J/cm2). After irradiation skin explants were post-treated (24 h) or not with teprenone (or trolox) at the same concentrations.
(§4) Explants were embedded in OCT, sectioned using a freezing microtome, and slide mounted. The mounted specimens were immunolabeled with anti-human Hsp antibody.

[4] = tested on: Hsp27; assay: Hsp27 immunolabeling in UVB-irradiated human skin explants; assay type: cell-based; conditions: 0.1 mM
Excerpt: as §2, §3, §4

[5] = tested on: sunburn cells (SBC) in human skin explants; assay: Sunburn cells (SBC) in human skin explants after UVB; assay type: cell-based; conditions: after UVB 2 J/cm^2
Protocol: With a view to determining the action of teprenone as per the invention, the effect of the active substance on the presence of sunburn cells (SBC) and apoptotic cell in human skin explants was investigated.
Human skin explants are treated in a way similar to the preceding experiment of description of the protective role of the teprenone on the catalase activity (obtained from a patient having undergone plastic surgery, cultured with or without teprenone for 48 hours then exposed to UV B radiation (2 J/cm^2). After irradiation, the explants were again cultured in fresh medium with or without teprenone for 24 hours).
SBC were evidenced on paraffin-wax-embedded skin explant sections by staining with […]. SBC, apoptotic keratinocytes with pyknotic nuclei and eosinophilic cytoplasm, are characteristic of mammalian epidermis exposed to UV B radiation.

[6] = tested on: catalase; assay: Catalase activity in human skin explants after UVB (Clairborne-Aebi method); assay type: cell-based; conditions: after UVB 2 J/cm2; 0.05 mM
Protocol: Human skin explants obtained from a patient having undergone plastic surgery were cultured with or without teprenone or Trolox (positive control) for 48 hours then exposed to UV B radiation (2 J/cm^2). After irradiation, the explants were again cultured in fresh medium with or without teprenone or Trolox for 24 hours. Similars explants were also used in immunolabeling tests on heat shock proteins (HSP) and in the apoptosis study.
Catalase anti-oxidant activity was determined by the Clairborne-Aebi method. Hydrogen peroxide (H2O2) consumption is directly proportional to catalase activity. The consumption was determined by spectrophotometry at 240 nm

SMILES: Cc1c(C)c2c(c(C)c1O)CCC(C)(C(=O)O)O2 (centres unmarked) [Trolox, 6-hydroxy-2,5,7,8-tetramethylchroman-2-carboxylic acid]
- Variation of peroxydation ([1]; concentration 2.2 · 10^−2%): −86%
- Variation of peroxydation ([1]; concentration 2.2 · 10^−3%): −88%
- Variation of peroxydation ([1]; concentration 2.2 · 10^−4%): −74%
- Variation of peroxydation ([1]; concentration 7.5 · 10^−3%): −88%
- Variation of peroxydation ([1]; concentration 7.5 · 10^−4%): −86%
- Variation of peroxydation ([2]; concentration 2.2 · 10^−2%): −88%
- Variation of peroxydation ([2]; concentration 2.2 · 10^−3%): −87%
- Variation of peroxydation ([2]; concentration 2.2 · 10^−4%): −83%
- Variation of peroxydation ([2]; concentration 7.5 · 10^−3%): −87%
- Variation of peroxydation ([2]; concentration 7.5 · 10^−4%): −82%
- Hsp70: Protection vs. irradiated (%) [3]: 100%
- Number of Hsp70 positive cells/cm ([3]; UVB 2 J/cm2, n = 3): 40 cells/cm
- Hsp27: Protection vs. irradiated (%) [4]: 75%
- Number of Hsp27 positive cells/cm ([4]; UVB 2 J/cm2, n = 3): 380 cells/cm
- % SBC (Sun Burn Cells) ([5]; 0.05 mM): 45%
- % SBC (Sun Burn Cells) ([5]; 0.1 mM): 30%
- catalase activity [6]: 90 UI/mg of protein
